Laboratory results reported in patent publication US20220056043A1, “NITROGEN-CONTAINING FUSED CYCLIC COMPOUND, PREPARATION METHOD THEREFOR AND USE THEREOF” (SICHUAN KELUN-BIOTECH BIOPHARMACEUTICAL CO., LTD., priority 2019, published 2022).

Columns and labels:
[1] = test system: THP1-defNLRP3 cells; experiment: Agonistic effect on the expression of IL-1β in NLRP3 deficient THP1 cells (THP1-defNLRP3) after PMA-induced differentiation (HTRF); format: cell-based, human; conditions: Homo sapiens, THP-1; IL-1β level, PMA-differentiated NLRP3 deficient THP1 cells, 6 hours; highest test concentration 30 μM; read-out: hNLRP3 EC50 (μM) (THP-1defNLRP3)
Excerpt: Experimental Example 2: Agonistic Effect of the Compound of the Invention on the Expression of IL-1β in NLRP3 Deficient THP1 Cells (THP1-defNLRP3 Cells) after PMA-Induced Differentiation
In this test, a HTRF detection method was used to test the effect of the compound of the invention on the level of IL-1β in THP1-defNLRP3 cells to evaluate the specificity of the agonistic effect of the compound on hNLRP3 inflammasome or hNLRP3 inflammasome pathway.
Reagents: as described in Experimental Example 1
Cell: THP1-defNLRP3 (InvivoGen)
Kit: IL-1β assay kit (CISBIO)
1) THP1-defNLRP3 cells in a logarithmic growth phase were seeded in a T75 culture flask at a density of 5×10^5 cells/well, and cultured in a cell incubator at 37° C., 5% CO2 for 24 hours, and then 1 μM PMA was used to induce THP1-defNLRP3 suspension cells to become adherent macrophages. The medium was RPMI 1640 containing 10% heat-inactivated FBS and 0.05 mM β-mercaptoethanol.
2) The cells were induced and cultured for 24 hours. Then the adherent cells were trypsinized and centrifuged at 1000 rpm for 5 min. The supernatant was removed, and the cells were resuspended to a density of 2×10^6 cells/mL in RPMI 1640 medium containing 2% heat-inactivated FBS. 50 μL/well of the cell resuspension was taken and spread on a 96-well plate such that the number of cells in each well was 1×10^5.
3) An appropriate amount of 10 mM DMSO solution of the compound to be tested was taken and diluted to a concentration of 2× test concentration with RPMI 1640 medium containing 2% heat-inactivated FBS. 50 μL/well of the dilution was added to the cells in the 96-well plate, and mixed well. The plate was incubated in a cell incubator at 37° C., 5% CO2 for 6 hours. The supernatant was collected, and the level of IL-1β was measured in accordance with the instructions of the IL-1β detection kit.
4) EC50 was fitted by the GraphPad software log(agonist) vs. response—Variable slope four-parameter method.

[2] = biological target: T1, hTLR7 (Homo sapiens, UniProt Q9NYK1); experiment: Agonistic effect on hTLR7, HEK-hTLR7-NF-κB-Luciferase reporter cells; format: cell-based; conditions: 16 hours
T1 construct: host or cells: HEK-hTLR7-NF-κB-Luciferase cells
T1 sequence (Q9NYK1 27-1049): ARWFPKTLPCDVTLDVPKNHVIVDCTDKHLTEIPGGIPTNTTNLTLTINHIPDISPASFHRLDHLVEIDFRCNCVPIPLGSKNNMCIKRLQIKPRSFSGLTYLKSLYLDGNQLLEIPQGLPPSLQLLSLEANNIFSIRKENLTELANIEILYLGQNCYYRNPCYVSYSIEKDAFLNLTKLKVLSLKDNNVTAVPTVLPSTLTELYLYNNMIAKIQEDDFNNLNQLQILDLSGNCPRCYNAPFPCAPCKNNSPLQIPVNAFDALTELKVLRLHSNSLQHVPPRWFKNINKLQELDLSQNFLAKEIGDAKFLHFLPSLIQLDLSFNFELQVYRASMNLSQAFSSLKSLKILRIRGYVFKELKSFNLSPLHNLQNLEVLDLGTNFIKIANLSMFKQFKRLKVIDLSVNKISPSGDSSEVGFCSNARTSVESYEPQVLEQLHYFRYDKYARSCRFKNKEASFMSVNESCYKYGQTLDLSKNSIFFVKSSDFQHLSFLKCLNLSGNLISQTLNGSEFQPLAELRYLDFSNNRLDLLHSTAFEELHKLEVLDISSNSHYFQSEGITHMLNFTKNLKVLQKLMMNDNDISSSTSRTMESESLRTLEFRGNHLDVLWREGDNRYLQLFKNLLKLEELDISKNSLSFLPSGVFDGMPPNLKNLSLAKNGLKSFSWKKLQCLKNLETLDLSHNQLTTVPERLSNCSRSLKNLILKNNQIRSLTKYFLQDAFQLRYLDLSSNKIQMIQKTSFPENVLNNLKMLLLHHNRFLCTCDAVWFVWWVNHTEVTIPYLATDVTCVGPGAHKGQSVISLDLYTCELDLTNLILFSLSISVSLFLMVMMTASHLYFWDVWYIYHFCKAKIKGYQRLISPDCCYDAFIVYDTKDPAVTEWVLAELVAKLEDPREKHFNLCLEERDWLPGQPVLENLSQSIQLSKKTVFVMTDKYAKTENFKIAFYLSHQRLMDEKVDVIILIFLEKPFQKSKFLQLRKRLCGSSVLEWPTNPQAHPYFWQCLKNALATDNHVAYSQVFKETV
Excerpt: Experimental Example 3: Agonistic Effect of the Compound of the Invention on hTLR7
In this test, the luciferase in HEK-hTLR7-NF-κB-reporter cells was detected to test the activating effect of the compound of the invention on TLR7 signaling pathway, so as to evaluate the specificity of the agonistic effect of the compound on NLRP3 pathway.
Reagents: DMEM (High glucose); FBS (fetal bovine serum) (Gibco); Bright-Glo™ Luciferase detection kit (Promega)
Cells: HEK-hTLR7-NF-κB-Luciferase gene cells (human TLR7 NF-κB-luciferase reporter gene cells) (Nanjing Cobioer)
1) The HEK-hTLR7-NF-κB-Luciferase cells in a logarithmic growth phase were trypsinized and resuspended in the medium to a concentration of 2×10^6 cells/mL. 50 μL/well of the cell resuspension was added to a 96-well plate such that the number of cells in each well was […]. An appropriate amount of 10 mM DMSO solution of the compound to be tested was taken and diluted to a concentration of 2× test concentration with the medium. 50 μL/well was added to the cells in the 96-well plate, and the 96-well plate was incubated in an incubator at 37° C. and 5% CO2 for 16 hours. The medium was DMEM (High glucose) containing 10% FBS.
2) After the cell incubation, 100 μL/well of Bright-Glo™ Luciferase detection reagent was added, and the mixture was incubated at room temperature for 5 minutes. Relative luciferase activity unit (RLU) was read using a microplate reader.
3) The EC50 of effect of the tested compound to stimulate hTLR7 was fitted by the GraphPad software log(agonist) vs. response—Variable slope four-parameter method.

Structure (SMILES)	EC50 [1] [µM]	EC50 [2] [µM]
CC(=O)N1CCC(Nc2cc(N)nc3cc(-c4ccn[nH]4)sc23)CC1 [Compound 92, 1-(4-((5-amino-2-(1H-pyrazol-5-yl)thieno[3,2-b]pyridin-7-yl)amino)piperidin-1-yl)ethanone]	> 30	> 100
Nc1cc(NCCCO)c2sc(-c3ccccc3)cc2n1 [Compound 93, 3-((5-amino-2-phenylthieno[3,2-b]pyridin-7-yl)amino)-1-propanol]	> 30	> 100
Nc1cc(NCC(F)(F)c2ccccn2)c2sc(-c3ccn[nH]3)cc2n1 [Compound 97, N^7-(2,2-difluoro-2-(pyridin-2-yl)ethyl)-2-(1H-pyrazol-5-yl)thieno[3,2-b]pyridine-5,7-diamine]	> 30	> 100
CC1(O)CCN(CCNc2cc(N)nc3cc(-c4ccn[nH]4)sc23)CC1 [Compound 98, 1-(2-((5-amino-2-(1H-pyrazol-5-yl)thieno[3,2-b]pyridin-7-yl)amino)ethyl)-4-methylpiperidine-4-ol]	> 30	> 100
CO[C@H](C)CNc1cc(N)nc2cc(-c3ccn[nH]3)sc12 [Compound 101, (R)—N^7-(2-methoxypropyl)-2-(1H-pyrazol-5-yl)thieno[3,2-b]pyridine-5,7-diamine]	> 30	> 100
CN1CCC[C@@H](Nc2cc(N)nc3cc(-c4ccn[nH]4)sc23)C1 [Compound 104, (R)—N^7-(1-methylpiperidin-3-yl)-2-(1H-pyrazol-5-yl)thieno[3,2-b]pyridine-5,7-diamine]	> 30	> 100
Nc1cc(NC[C@@H]2CCCO2)c2sc(-c3ccn[nH]3)cc2n1 [Compound 105, (S)-2-(1H-pyrazol-5-yl)-N^7-((tetrahydrofuran-2-yl)methyl)thieno[3,2-b]pyridine-5,7-diamine]	> 30	> 100
C[C@@H](CO)Nc1cc(N)nc2cc(-c3ccn[nH]3)sc12 [Compound 108, (S)-2-((5-amino-2-(1H-pyrazol-5-yl)thieno[3,2-b]pyridin-7-yl)amino)propanol]	> 30	> 100
Cn1cc(-c2cc3nc(N)cc(NCCCO)c3s2)cn1 [Compound 109, 3-((5-amino-2-(1-methyl-1H-pyrazol-4-yl)thieno[3,2-b]pyridin-7-yl)amino)-1-propanol]	> 30	> 100
Nc1cc(NC2CCCC2)c2sc(-c3ccn[nH]3)cc2n1 [Compound 110, N^7-cyclopentyl-2-(1H-pyrazol-5-yl)thieno[3,2-b]pyridine-5,7-diamine]	> 30	> 100
CCC(CC)Nc1cc(N)nc2cc(-c3ccn[nH]3)sc12 [Compound 113, N^7-(pent-3-yl)-2-(1H-pyrazol-5-yl)thieno[3,2-b]pyridine-5,7-diamine]	> 30	> 100
CC1(CNc2cc(N)nc3cc(-c4ccn[nH]4)sc23)COC1 [Compound 121, N^7-((3-methyloxetan-3-yl)methyl)-2-(1H-pyrazol-5-yl)thieno[3,2-b]pyridine-5,7-diamine]	> 30	> 100
CC(CO)(CO)CNc1cc(N)nc2cc(-c3ccn[nH]3)sc12 [Compound 122]	> 30	> 100
Cc1c(-c2ccn[nH]2)sc2c(NC[C@@H]3CCCO3)cc(N)nc12 [Compound 157]	> 30	> 100
Cc1c(-c2cc[nH]n2)sc2c(NCCCO)cc(N)nc12 [Compound 159]	> 30	> 100
CN1CCN(c2cc(N)nc3cc(-c4ccn[nH]4)sc23)CC1 [Compound 161]	> 30	> 100
CC(C)N1CCN(c2cc(N)nc3cc(-c4ccn[nH]4)sc23)CC1 [Compound 162]	> 30	> 100

Results, then the compound that gave them:

EC50 [1] [µM]	EC50 [2] [µM]	Structure (SMILES)
> 30	> 100	CC[C@H](CO)Nc1cc(N)nc2cc(-c3ccn[nH]3)sc12 [Compound 95, (R)-2-((5-amino-2-(1H-pyrazol-5-yl)thieno[3,2-b]pyridin-7-yl)amino)butanol]
> 30	> 100	Nc1cc(N[C@@H]2CCC[C@@H]2O)c2sc(-c3ccn[nH]3)cc2n1 [Compound 96, (1S,2R)-2-((5-amino-2-(1H-pyrazol-5-yl)thieno[3,2-b]pyridin-7-yl)amino)cyclopentanol]
> 30	> 100	CC1(O)CCN(CCCNc2cc(N)nc3cc(-c4ccn[nH]4)sc23)CC1 [Compound 99, 1-(3-((5-amino-2-(1H-pyrazol-5-yl)thieno[3,2-b]pyridin-7-yl)amino)propyl)-4-methylpiperidine-4-ol]
> 30	> 100	Nc1cc(NCC2CC2)c2sc(-c3ccn[nH]3)cc2n1 [Compound 102, N^7-(cyclopropylmethyl)-2-(1H-pyrazol-5-yl)thieno[3,2-b]pyridine-5,7-diamine]
> 30	> 100	Cn1cc(CNc2cc(N)nc3cc(-c4ccn[nH]4)sc23)cn1 [Compound 106, N^7-(1-methyl-1H-pyrazol-4-yl)methyl-2-(1H-pyrazol-5-yl)thieno[3,2-b]pyridine-5,7-diamine]
> 30	> 100	C[C@@H]1CN(CCNc2cc(N)nc3cc(-c4ccn[nH]4)sc23)C[C@H](C)O1 [Compound 117, N^7-(2-((2S,6R)-2,6-dimethylmorpholino)ethyl)-2-(1H-pyrazol-5-yl)thieno[3,2-b]pyridine-5,7-diamine]
> 30	> 100	N#CC1(CNc2cc(N)nc3cc(-c4ccn[nH]4)sc23)CC1 [Compound 119]
> 30	> 100	Cc1c(-c2cc[nH]n2)sc2c(NCCN3CCOCC3)cc(N)nc12 [Compound 153]
> 30	> 100	Cc1c(-c2cc[nH]n2)sc2c(NCC3CC3)cc(N)nc12 [Compound 156]
> 30	> 100	Nc1cc(N2CCN(C3CCCC3)CC2)c2sc(-c3ccn[nH]3)cc2n1 [Compound 160]
